The values that follow come from PubChem BioAssay AID330 (DTP/NCI, 2004).

Several values for one entry are separate records, joined by “and”; a condition that tells them apart may be missing. Equal entries are not always repeated. Inconclusive results and toxic doses are left out.

The test system of the assay is P388 leukemia ip, CD2F1 mice, survival T/C. Description: NCI In Vivo Anticancer Drug Screen. Data for tumor model P388 Leukemia (intraperitoneal) in CD2F1 (CDF1) mice. To be noted: endpoint: median survival time, higher = longer survival. Put shortly: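 Mice carrying the transplanted tumor received test compound or vehicle. Survival was recorded in each group, and the value is the treated-group measurement divided by that of the vehicle-treated control group.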

Where [1] appears, read: dose: 50.0 mg/kg/injection, schedule: Q01DX005 (ip), vehicle: saline with Tween-80.
Setting [2] is: dose: 100.0 mg/kg/injection, schedule: Q01DX005 (ip), vehicle: saline with Tween-80.
Setting [3] is: dose: 200.0 mg/kg/injection, schedule: Q01DX005 (ip), vehicle: saline with Tween-80.
Where [4] appears, read: dose: 12.5 mg/kg/injection, schedule: Q01DX009 (ip), vehicle: Klucel (hydroxypropylcellulose) (HPC).
The mark [5] stands for this setting: dose: 25.0 mg/kg/injection, schedule: Q01DX009 (ip), vehicle: Klucel (hydroxypropylcellulose) (HPC).
[6] abbreviates: dose: 50.0 mg/kg/injection, schedule: Q01DX009 (ip), vehicle: Klucel (hydroxypropylcellulose) (HPC).
The mark [7] stands for this setting: dose: 100.0 mg/kg/injection, schedule: Q01DX009 (ip), vehicle: Klucel (hydroxypropylcellulose) (HPC).
Setting [8] is: dose: 50.0 mg/kg/injection, schedule: Q01DX009 (ip), vehicle: saline.
Where [9] appears, read: dose: 100.0 mg/kg/injection, schedule: Q01DX009 (ip), vehicle: saline.
[10] abbreviates: dose: 200.0 mg/kg/injection, schedule: Q01DX009 (ip), vehicle: saline.
Where [11] appears, read: dose: 60.0 mg/kg/injection, schedule: Q01DX005 (ip), vehicle: saline with Tween-80.
Where [12] appears, read: dose: 120.0 mg/kg/injection, schedule: Q01DX005 (ip), vehicle: saline with Tween-80.
Setting [13] is: dose: 240.0 mg/kg/injection, schedule: Q01DX005 (ip), vehicle: saline with Tween-80.
Setting [14] is: dose: 25.0 mg/kg/injection, schedule: Q01DX009 (ip), vehicle: saline with Tween-80.
[15] abbreviates: dose: 50.0 mg/kg/injection, schedule: Q01DX009 (ip), vehicle: saline with Tween-80.
[16] abbreviates: dose: 50.0 mg/kg/injection, schedule: Q01DX005 (ip), vehicle: Klucel (hydroxypropylcellulose) (HPC).
Setting [17] is: dose: 100.0 mg/kg/injection, schedule: Q01DX005 (ip), vehicle: Klucel (hydroxypropylcellulose) (HPC).
[18] abbreviates: dose: 200.0 mg/kg/injection, schedule: Q01DX005 (ip), vehicle: Klucel (hydroxypropylcellulose) (HPC).

As for `O=c1c(O)cc2c(O)oc3c(=O)c(O)c(O)c4c(O)oc1c2c43`, the T/C (dose: 25.0 mg/kg/injection, schedule: Q01DX009 (ip), vehicle: suspension in saline) was 114 % of control and 97 % of control; the T/C (dose: 50.0 mg/kg/injection, schedule: Q01DX009 (ip), vehicle: suspension in saline) is 111 % of control and 97 % of control; the T/C (dose: 100.0 mg/kg/injection, schedule: Q01DX009 (ip), vehicle: suspension in saline) is 112 % of control and 98 % of control; the T/C (dose: 200.0 mg/kg/injection, schedule: Q01DX009 (ip), vehicle: suspension in saline) is 103 % of control and 114 % of control.

Regarding `C=C1C(=O)C23OC2C1CCC(=O)C1(C)CC[C@H](OC(C)=O)C(C)(C)[C@H]1CC3=O` (stereo partly specified), the T/C is, setting by setting: (dose: 2.5 mg/kg/injection, schedule: Q01DX005 (ip), vehicle: Klucel (hydroxypropylcellulose) (HPC)) 111 % of control; (dose: 5.0 mg/kg/injection, schedule: Q01DX005 (ip), vehicle: Klucel (hydroxypropylcellulose) (HPC)) 107 % of control; (dose: 10.0 mg/kg/injection, schedule: Q01DX005 (ip), vehicle: Klucel (hydroxypropylcellulose) (HPC)) 107 % of control.

For the molecule `O=C(OC(C(=O)O)C(OC(=O)c1ccccc1)C(=O)O)c1ccccc1` (stereo unspecified), the T/C runs as follows: under setting [1], 106 % of control; under setting [2], 99 % of control; under setting [3], 98 % of control.

In the case of `COc1cc2c3cc1Oc1c(OC)c(OC)cc4c1C(Cc1ccc(cc1)Oc1cc(ccc1O)CC3N(C)CC2)N(C)CC4` (stereo unspecified), the T/C under setting [4] was 97 % of control, the T/C under setting [5] was 97 % of control, the T/C under setting [6] is 94 % of control and the T/C under setting [7] was 105 % of control.

For the molecule `CC1(C)NC1C(O)c1ccccc1` (stereo unspecified), the T/C was 102 % of control under setting [8], 103 % of control under setting [9] and 104 % of control under setting [10].

With `COC(=O)CC1C=CC(OC)[C@@]2(C)C(=O)C=C(C)C(=O)[C@@H]12` (stereo partly specified), the T/C is 110 % of control under setting [11], 106 % of control under setting [12] and 106 % of control under setting [13].

`O=C1N(Cl)C2(c3ccccc3)N(Cl)C(=O)N(Cl)C2(c2ccccc2)N1Cl` (stereo unspecified): the T/C (dose: 25.0 mg/kg/injection, schedule: Q04DX003 (ip), vehicle: Klucel (hydroxypropylcellulose) (HPC)) was 103 % of control and the T/C (dose: 50.0 mg/kg/injection, schedule: Q04DX003 (ip), vehicle: Klucel (hydroxypropylcellulose) (HPC)) was 110 % of control.

In the case of `COc1cc(OCc2ccc(OCc3ccccc3)cc2)cc(OC)c1OC`, the T/C reads like this: under setting [1], 93 % of control; under setting [2], 105 % of control; under setting [3], 95 % of control.

`CCn1c2c(c3ccccc31)CCSC2(C)CCN(C)C` (stereo unspecified): the T/C under setting [14] is 105 % of control; the T/C under setting [15] is 96 % of control; the T/C (dose: 100.0 mg/kg/injection, schedule: Q01DX009 (ip), vehicle: saline with Tween-80) is 117 % of control.

Regarding `COP(=O)(OC)O[Si](C)(C)CC[Si](C)(C)Cl`, the T/C under setting [16] was 105 % of control, the T/C under setting [17] is 105 % of control and the T/C under setting [18] is 99 % of control.

In the case of `CCCCCC[N+]1([O-])CC[N+]([O-])(CCCCCC)CC1` (stereo unspecified), the T/C reads like this: (dose: 15.0 mg/kg/injection, schedule: Q01DX005 (ip), vehicle: saline) 101 % of control; (dose: 30.0 mg/kg/injection, schedule: Q01DX005 (ip), vehicle: saline) 102 % of control; (dose: 60.0 mg/kg/injection, schedule: Q01DX005 (ip), vehicle: saline) 102 % of control and 103 % of control.

On to `CC/C(=N/NS(=O)(=O)c1ccc(C)cc1)C(=O)O`, for which the T/C was 90 % of control (dose: 25.0 mg/kg/injection, schedule: Q01DX005 (ip), vehicle: Klucel (hydroxypropylcellulose) (HPC)); 92 % of control under setting [16]; 92 % of control under setting [17]; 91 % of control under setting [18]; 88 % of control (dose: 400.0 mg/kg/injection, schedule: Q01DX005 (ip), vehicle: Klucel (hydroxypropylcellulose) (HPC)).

For `O=Nc1c(O)n(-c2ccccc2)c(=O)[nH]c1=O`, the T/C is, setting by setting: (dose: 50.0 mg/kg/injection, schedule: Q04DX002 (ip), vehicle: suspension in saline) 100 % of control; (dose: 100.0 mg/kg/injection, schedule: Q04DX002 (ip), vehicle: suspension in saline) 101 % of control; (dose: 200.0 mg/kg/injection, schedule: Q04DX002 (ip), vehicle: suspension in saline) 101 % of control.

In the case of `CCN(CC)Cc1c[nH]c2ccccc12`, the T/C is 102 % of control under setting [4], 103 % of control under setting [5] and 97 % of control under setting [6].

Take `O=C(CCCCCCCCCCC(=O)NO)NO`: the T/C is, setting by setting: under setting [11], 105 % of control; under setting [12], 106 % of control; under setting [13], 110 % of control.

Consider `COc1cc(OC)c2[nH]c3c(c(=O)c2c1)C(=O)c1[nH]c2c(OC)cc(OC)cc2c(=O)c1C3=O`, for which the T/C is, setting by setting: under setting [6], 109 % of control; under setting [7], 105 % of control; (dose: 200.0 mg/kg/injection, schedule: Q01DX009 (ip), vehicle: Klucel (hydroxypropylcellulose) (HPC)) 108 % of control.

Take `C=CO/C(C)=C(\[Se]c1ccccc1)C(C)=O`: the T/C is, setting by setting: under setting [8], 99 % of control; under setting [9], 100 % of control; under setting [10], 104 % of control.

In the case of `Cn1c(C(=O)O)cc(=O)cc1C(=O)O`, the T/C is, setting by setting: (dose: 6.25 mg/kg/injection, schedule: Q01DX009 (ip), vehicle: saline with Tween-80) 100 % of control; (dose: 12.5 mg/kg/injection, schedule: Q01DX009 (ip), vehicle: saline with Tween-80) 101 % of control; under setting [14], 95 % of control; under setting [15], 100 % of control.

In the case of `O=C(NCC(=O)N1CCCC1)N/N=C/c1ccccc1O`, the T/C is, setting by setting: under setting [16], 102 % of control; under setting [17], 102 % of control; under setting [18], 98 % of control.

Consider `Cc1[nH]c(C)c2ccc(=O)ccc12`, for which the T/C by setting is: (dose: 30.0 mg/kg/injection, schedule: Q01DX005 (ip), vehicle: suspension in saline) 101 % of control; (dose: 60.0 mg/kg/injection, schedule: Q01DX005 (ip), vehicle: suspension in saline) 94 % of control and 97 % of control; (dose: 120.0 mg/kg/injection, schedule: Q01DX005 (ip), vehicle: suspension in saline) 88 % of control; (dose: 240.0 mg/kg/injection, schedule: Q01DX005 (ip), vehicle: suspension in saline) 93 % of control.

`CC(O)C(=O)NC1CCCCC1` (stereo unspecified): the T/C (dose: 50.0 mg/kg/injection, schedule: Q01DX005 (ip), vehicle: saline) was 98 % of control; the T/C (dose: 100.0 mg/kg/injection, schedule: Q01DX005 (ip), vehicle: saline) was 88 % of control; the T/C (dose: 200.0 mg/kg/injection, schedule: Q01DX005 (ip), vehicle: saline) is 89 % of control.

In the case of `CN(C)CCN1C(=O)C2(C)C3CCC(O3)C2(C)C1=O` (stereo unspecified), the T/C reads like this: under setting [1], 103 % of control; under setting [2], 100 % of control; under setting [3], 100 % of control.

Consider `COc1cc(NC(=O)N(CCCl)N=O)cc(OC)c1OC`, for which the T/C reads like this: (dose: 0.18 mg/kg/injection, schedule: Q01DX009 (ip), vehicle: alcohol) 107 % of control; (dose: 0.27 mg/kg/injection, schedule: Q01DX009 (ip), vehicle: alcohol) 109 % of control; (dose: 0.4 mg/kg/injection, schedule: Q01DX009 (ip), vehicle: alcohol) 100 % of control; (dose: 0.6 mg/kg/injection, schedule: Q01DX009 (ip), vehicle: alcohol) 107 % of control; (dose: 1.33 mg/kg/injection, schedule: Q01DX009 (ip), vehicle: saline + alcohol) 173 % of control; (dose: 2.0 mg/kg/injection, schedule: Q01DX009 (ip), vehicle: saline + alcohol) 170 % of control. Further, the T/C (dose: 7.5 mg/kg/injection, schedule: Q04DX003 (ip), vehicle: saline + alcohol) is 154 % of control; the T/C (dose: 12.5 mg/kg/injection, schedule: Q04DX003 (ip), vehicle: other) was 215 % of control; the T/C (dose: 25.0 mg/kg/injection, schedule: Q04DX003 (ip), vehicle: other) was 280 % of control; the T/C (dose: 50.0 mg/kg/injection, schedule: Q04DX003 (ip), vehicle: other) was 300 % of control.
